Assay results published in patent US20260242320A1, “USE OF CANNABIDIOL DERIVATIVE IN PREPARATION OF MEDICAMENT” (priority 2023, published 2026).
“Also recorded” adds a separate entry of the source.

Key:
BV-2 cellular viability = experiment: Cell viability / cytotoxicity by crystal violet staining; type: cell-based
Procedure: 100 μL of culture medium were transferred to a black 96-well plate for later use. Following removal of old culture medium, 100 μL of 4% paraformaldehyde was added for fixation. Fixation was performed for 5 minutes. Paraformaldehyde was then removed, and 100 μL of 0.05% crystal violet was added. The resultant mixture was incubated for 15 minutes, after which time crystal violet was removed and the mixture was slowly rinsed with water three times. Next, 150 μL of ethanol was added, and the mixture was incubated for 15 minutes. After incubation, the absorbance was measured at 540 nm using a spectrophotometer. Viability (%)=100× Fluorescence values of the dosing group/Fluorescence values of the blank group.
Cell viability was determined by crystal violet staining. Briefly, BV-2 cells were treated as indicated in the NO assay. The media was removed, and then 4% paraformaldehyde was added to fix the cells for 5 min. Cells were stained with 100 μL 0.05% crystal violet for 15 min and washed with water 2 times. Next, 150 μL of ethanol was added to each well, and the plate was incubated for 15 min at room temperature. Absorbance at 540 nm was measured using a SYNERGY H1 Microplate Reader.

[1] = test system: LPS-induced IL-1β, TNF-α, IL-6, iNOS, IL-10 mRNA in BV-2 cells; experiment: qRT-PCR of proinflammatory and M1/M2 marker mRNAs in LPS-treated BV-2 cells; type: cell-based
Procedure: (§1) Total RNA was extracted from cells or mouse brains using the RNeasy Mini Kit. Isolated RNA was reverse-transcribed into cDNA using an RT2 Easy First Strand cDNA Synthesis Kit following the manufacturer's protocols. PCR amplification was conducted using synthetic primers, SYBR Green, and a TOptical Real-Time qPCR Thermal Cycler (Analytik Jena, Thuringia, Germany). The data were analyzed by the […] method, and Rpl711 or Rpl27 was used as an internal control.

morphine-treated mice = experiment: Morphine-induced behavioral sensitization; type: in vivo; details: 0.2 mg/kg i.p.
Procedure: Mice were placed into the test chamber (40×40×40 cm^3) for 60 min to habituate the chamber for three consecutive days. […] Locomotor activity was recorded daily for 60 min after the administration of drugs. Next, all the mice were subjected to a 7-day withdrawal period (days 8-14). Subsequently, mice were given morphine (5 mg/kg, i.p.), and locomotor activity was recorded to determine behavioral sensitization.

[2] = test system: IL-1β in mPFC, NAc and VTA; experiment: IL-1β expression in brain regions after chronic morphine; type: in vivo; details: mice
Procedure: as §1
Conditional place conditioning (CPP) was conducted using the classic 10-consecutive-day procedure. On days 1 and 2, each mouse was separately placed into the CPP apparatus for 15 min to habituate the apparatus. On day 3 (preconditioning), the time spent in each compartment was recorded to determine any preference for the two compartments. Mice were divided into three groups: vehicle group, 7.5 mg/kg morphine, as well as 7.5 mg/kg morphine+0.2 mg/kg CIAC001. During the conditioning phase, mice were separately isolated in the compartment for 30 min on 6 consecutive days. Mice were given morphine on days 4, 6, and 8, and vehicle (5 mL/kg) was administered on days 5, 7, and 9. […] Each mouse was placed in the apparatus and explored freely, and the time spent in each compartment was recorded for 15 min. The CPP score(s) was calculated using the time spent in the drug-paired compartment minus the time spent in the vehicle-paired compartment.

[3] = test system: microglial activation marker Iba1; experiment: Iba1 immunofluorescence staining of brain sections; type: in vivo, mice; details: chronic morphine
Procedure: Mice were anesthetized with tribromoethanol following the CPP assay and intracardially perfused with 8 mL saline; the brains were then stripped out and embedded in paraffin. The brain was sectioned coronally at 5 μm thickness on a vibrating microtome. Paraffin-processed tissues were deparaffinized in xylene and rehydrated with a graded alcohol solution. The sections were placed in 0.01 M citrate buffer (pH 6.0) and heated in a microwave oven for hot antigen repair. These sections were incubated with goat serum for 20 min at 37° C. and then with rabbit anti-Iba1 monoclonal antibody at 4° C. overnight. After three washes with PBS, the sections were incubated with an Alexa-488-conjugated secondary antibody for 1 h in the dark. Ultimately, followed by three washes with PBS twice for 5 min each, the sections were counterstained with DAPI and examined under a confocal microscope

[4] = CPP assay for rewarding effect of CIAC001; type: in vivo, mice; details: 20 mg/kg i.p.
Procedure: Conditional place conditioning (CPP) was conducted using the classic 10-consecutive-day procedure. On days 1 and 2, each mouse was separately placed into the CPP apparatus for 15 min to habituate the apparatus. On day 3 (preconditioning), the time spent in each compartment was recorded to determine any preference for the two compartments. […] During the conditioning phase, mice were separately isolated in the compartment for 30 min on 6 consecutive days. Mice were given morphine on days 4, 6, and 8, and vehicle (5 mL/kg) was administered on days 5, 7, and 9. The postconditioning phase was carried out 24 h after the last conditioning session. Each mouse was placed in the apparatus and explored freely, and the time spent in each compartment was recorded for 15 min. The CPP score(s) was calculated using the time spent in the drug-paired compartment minus the time spent in the vehicle-paired compartment.

Open field test = type: in vivo, mice; details: 20 mg/kg i.p., seven consecutive days
Procedure: After two days of habitation, each mouse was placed in the open field, and the moving distances within 1 h and the grooming and rubbing numbers within the first 15 min was recorded as vehicle control (pre-test group). Next, each mouse was administered CIAC001 (20 mg/kg; i.p.) once daily for 7 days. 24 h after the last administration, the moving distances and the grooming and rubbing numbers were measured again to compare changes before and after CIAC001 treatment.

Hif-1α = Hif-1α western blot in mPFC after chronic morphine; type: in vivo; details: mice
Text: ImageJ was used for densitometric analysis.

Tau, TrkB, Syn1, Aβ = experiment: Western blot of Alzheimer's disease markers in mouse hippocampus; type: in vivo; details: transgene mice, 0, 0.2, 2, or 20 mg/kg
Procedure: The protein samples from the mouse hippocampus were analyzed for Tau5, p-Tau (T231), p-Tau (S202), p-Tau (S404), p-TrkB (Y705), Syn1, Aβ1-42, and Aβ1-16 protein content using Western blot technique.

[5] = LPS-treated cells, mRNA by qPCR

With C=C(C)[C@@H]1CCC(C)=C[C@H]1c1c(O)cc(C(C)n2nccn2)cc1O (stereo partly drawn) [CIAC001, (1′R,2′R)-4-(1-(2H-1,2,3-Triazol-2-yl)ethyl)-5′-methyl-2′-(prop-1-en-2-yl)-1′,2′,3′,4′-tetrahydro-[1,1′-biphenyl]-2,6-diol] the IC50 (BV-2 cellular viability; Mus musculus, BV-2 cells, read-out: Cellular toxicity (IC50 inhibiting BV-2 cellular viability)) was 57.8 ± 7.6 µM, the “fold less cytotoxicity compared to CBD” value (BV-2 cellular viability; vs CBD) was 6.8 fold and the “LPS-induced overexpression of IL-1β mRNA” value ([1]; BV-2 cells) was “concentration-dependently inhibited”. For the same molecule, the “LPS-induced overexpression of IL-6 mRNA” value ([1]; BV-2 cells) was “concentration-dependently inhibited”, the “LPS-induced overexpression of TNF-α mRNA” value ([1]; BV-2 cells) was “concentration-dependently inhibited” and the “expression of M1 phenotype markers IL-1β and iNOS” value [1, 5] was “inhibited LPS-induced increased expression”. For the same molecule, the “expression of M2 phenotype marker IL-10” value [1, 5] was “attenuated LPS-induced decreased expression”, the “locomotor response to morphine challenge (expression of behavioral sensitization)” value (morphine-treated mice; day 15) was “decreased the locomotor response” and the “development of morphine-induced behavioral sensitization (induction period)” value (morphine-treated mice; mice) was “significantly inhibited; also recorded: ameliorated”. For the same molecule, the “morphine-induced IL-1β overexpression in mPFC, NAc and VTA” value [2] was “inhibited”, the “expression of Iba1 in the mPFC” value [3] was “decreased the expression of Iba1” and the “rewarding effect (CPP after 6 consecutive days of training)” value [4] was “did not show any effect on CPP”. The “grooming and rubbing behaviors (open field)” value (Open field test) was “No apparent differences”, the “motor activity (open field)” value (Open field test) was “No apparent differences” and the “chronic morphine-induced Hif-1α overexpression in mPFC” value (Hif-1α) was “inhibit chronic morphine-induced Hif-1α overexpression”. For the same molecule, the “Syn1 and Aβ levels” value (Tau, TrkB, Syn1, Aβ) was “reduces Syn1 and Aβ levels” and the “Tau and TrkB phosphorylation” value (Tau, TrkB, Syn1, Aβ) was “inhibits Tau and TrkB phosphorylation”.
